Reference: PubChem BioAssay AID2060889 (Molecular Pharmacology Branch, DTP, NCI, 2025)

Tested on: LG0567-F671-PDC complex spheroids viability
Test: Anticancer human tumor LG0567-F671-PDC patient-derived lung adenocarcinoma cell line growth inhibition [RAS]
Conditions: for viability, T/C: stronger effect = lower value
How it was run: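 Agents were tested in combination matrices in half-log decrements from a top concentration at or near clinical Cmax (10 microM if undetermined). Targets were multi-cell spheroids of tumour lines plus HUVEC and MSC stromal cells.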

[1] = curve of first compound, second compound 0.000949 µM
[2] = curve of first compound, second compound 0.003 µM
[3] = curve of first compound, second compound 0.00949 µM
[4] = curve of first compound, second compound 0.03 µM
[5] = curve of first compound, second compound 0.0949 µM
[6] = curve of first compound, second compound 0.3 µM
[7] = second compound 0.000949 µM, first compound 0.0316 µM
[8] = second compound 0.000949 µM, first compound 0.1 µM
[9] = second compound 0.000949 µM, first compound 0.316 µM
[10] = second compound 0.000949 µM, first compound 1 µM
[11] = second compound 0.003 µM, first compound 0.0316 µM
[12] = second compound 0.003 µM, first compound 0.1 µM
[13] = second compound 0.003 µM, first compound 0.316 µM
[14] = second compound 0.003 µM, first compound 1 µM
[15] = second compound 0.00949 µM, first compound 0.0316 µM
[16] = second compound 0.00949 µM, first compound 0.1 µM
[17] = second compound 0.00949 µM, first compound 0.316 µM
[18] = second compound 0.00949 µM, first compound 1 µM
[19] = second compound 0.03 µM, first compound 0.0316 µM
[20] = second compound 0.03 µM, first compound 0.1 µM
[21] = second compound 0.03 µM, first compound 0.316 µM
[22] = second compound 0.03 µM, first compound 1 µM
[23] = second compound 0.0949 µM, first compound 0.0316 µM
[24] = second compound 0.0949 µM, first compound 0.1 µM
[25] = second compound 0.0949 µM, first compound 0.316 µM
[26] = second compound 0.0949 µM, first compound 1 µM
[27] = second compound 0.3 µM, first compound 0.0316 µM
[28] = second compound 0.3 µM, first compound 0.1 µM
[29] = second compound 0.3 µM, first compound 0.316 µM
[30] = second compound 0.3 µM, first compound 1 µM
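Further: spheroids exposed to compound for seven days before readout.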
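Wherever IC50 is given: luminescence signal used as a proxy for viable cells.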

CC(=O)OC12COC1CC(O)C1(C)C(=O)C(O)C3=C(C)C(OC(=O)C(O)C(NC(=O)OC(C)(C)C)c4ccccc4)CC(O)(C(OC(=O)c4ccccc4)C21)C3(C)C (stereo not drawn)
viability, T/C (compound 0.0316 µM): 51.5% [middle of 4 runs] | viability, T/C (compound 0.1 µM): 44.6% [middle of 4 runs] | viability, T/C (compound 0.316 µM): 58.4% [middle of 4 runs] | viability, T/C (compound 1 µM): 62.5% [middle of 4 runs] | viability, T/C (compound 3.16 µM): 70.3% [middle of 4 runs] | viability, T/C (compound 10 µM): 63.5% [middle of 4 runs] | IC50 (curve of compound): < 31.6 nM

CC(C)n1nc(-c2ccc3oc(N)nc3c2)c2c(N)ncnc21 + C#Cc1c(F)ccc2cc(O)cc(-c3ncc4c(N5CC6CCC(C5)N6)nc(OCC56CCCN5CC(F)C6)nc4c3F)c12
IC50 (curve of first compound, second compound 0.0316 µM): 19.6 nM | IC50 (curve of first compound, second compound 0.1 µM): 17.8 nM | IC50 (curve of first compound, second compound 0.316 µM): 1.32 nM | IC50 (curve of first compound, second compound 1 µM): < 0.316 nM | IC50 (curve of first compound, second compound 3.16 µM): < 0.316 nM | IC50 (curve of first compound, second compound 10 µM): < 0.316 nM | viability, T/C (second compound 0.0316 µM, first compound 0.000316 µM): 90.7% | viability, T/C (second compound 0.0316 µM, first compound 0.001 µM): 77.8% | viability, T/C (second compound 0.0316 µM, first compound 0.00316 µM): 83.4% | viability, T/C (second compound 0.0316 µM, first compound 0.01 µM): 58.3% | viability, T/C (second compound 0.0316 µM, first compound 0.0316 µM): 44.3% | viability, T/C (second compound 0.0316 µM, first compound 0.1 µM): 34.1% | viability, T/C (second compound 0.1 µM, first compound 0.000316 µM): 73.3% | viability, T/C (second compound 0.1 µM, first compound 0.001 µM): 73.5% | viability, T/C (second compound 0.1 µM, first compound 0.00316 µM): 61.1% | viability, T/C (second compound 0.1 µM, first compound 0.01 µM): 58.2% | viability, T/C (second compound 0.1 µM, first compound 0.0316 µM): 43.2% | viability, T/C (second compound 0.1 µM, first compound 0.1 µM): 33% | viability, T/C (second compound 0.316 µM, first compound 0.000316 µM): 52.9% | viability, T/C (second compound 0.316 µM, first compound 0.001 µM): 48.9% | viability, T/C (second compound 0.316 µM, first compound 0.00316 µM): 49.1% | viability, T/C (second compound 0.316 µM, first compound 0.01 µM): 40.8% | viability, T/C (second compound 0.316 µM, first compound 0.0316 µM): 34.2% | viability, T/C (second compound 0.316 µM, first compound 0.1 µM): 28.5% | viability, T/C (second compound 1 µM, first compound 0.000316 µM): 36.7% | viability, T/C (second compound 1 µM, first compound 0.001 µM): 36.2% | viability, T/C (second compound 1 µM, first compound 0.00316 µM): 30.8% | viability, T/C (second compound 1 µM, first compound 0.01 µM): 24.9% | viability, T/C (second compound 1 µM, first compound 0.0316 µM): 22.3% | viability, T/C (second compound 1 µM, first compound 0.1 µM): 18.5% | viability, T/C (second compound 3.16 µM, first compound 0.000316 µM): 21.4% | viability, T/C (second compound 3.16 µM, first compound 0.001 µM): 19.9% | viability, T/C (second compound 3.16 µM, first compound 0.00316 µM): 20.1% | viability, T/C (second compound 3.16 µM, first compound 0.01 µM): 15.6% | viability, T/C (second compound 3.16 µM, first compound 0.0316 µM): 13.6% | viability, T/C (second compound 3.16 µM, first compound 0.1 µM): 9.08% | viability, T/C (second compound 10 µM, first compound 0.000316 µM): 11.7% | viability, T/C (second compound 10 µM, first compound 0.001 µM): 10.7% | viability, T/C (second compound 10 µM, first compound 0.00316 µM): 8.74% | viability, T/C (second compound 10 µM, first compound 0.01 µM): 9.19% | viability, T/C (second compound 10 µM, first compound 0.0316 µM): 6.42% | viability, T/C (second compound 10 µM, first compound 0.1 µM): 5.01%

C[C@@H](NC(=O)c1ncnc(N)c1Cl)c1ncc(C(=O)Nc2cc(C(F)(F)F)c(Cl)cn2)s1 + CCn1c(-c2cccnc2C(C)OC)c2c3cc(ccc31)N1CCOC(CC(NC(=O)C(C(C)C)N(C)C(=O)C3(F)CCN(C(=O)C#CC(C)(C)N(C)C)CC3)C(=O)N3CCCC(N3)C(=O)OCC(C)(C)C2)C1
IC50 [1]: < 31.6 nM | IC50 [2]: < 31.6 nM | IC50 [3]: < 31.6 nM | IC50 [4]: < 31.6 nM | IC50 [5]: < 31.6 nM | IC50 [6]: < 31.6 nM | viability, T/C [7]: 17.3% | viability, T/C [8]: 19.9% | viability, T/C [9]: 20.6% | viability, T/C [10]: 24.5% | viability, T/C (second compound 0.000949 µM, first compound 3.16 µM): 23.5% | viability, T/C (second compound 0.000949 µM, first compound 10 µM): 23.9% | viability, T/C [11]: 17.1% | viability, T/C [12]: 17.9% | viability, T/C [13]: 21.1% | viability, T/C [14]: 21% | viability, T/C (second compound 0.003 µM, first compound 3.16 µM): 25.6% | viability, T/C (second compound 0.003 µM, first compound 10 µM): 23.6% | viability, T/C [15]: 20.9% | viability, T/C [16]: 18.6% | viability, T/C [17]: 19.2% | viability, T/C [18]: 22.4% | viability, T/C (second compound 0.00949 µM, first compound 3.16 µM): 22.4% | viability, T/C (second compound 0.00949 µM, first compound 10 µM): 24% | viability, T/C [19]: 16.7% | viability, T/C [20]: 17.1% | viability, T/C [21]: 22.9% | viability, T/C [22]: 20.3% | viability, T/C (second compound 0.03 µM, first compound 3.16 µM): 21.6% | viability, T/C (second compound 0.03 µM, first compound 10 µM): 22.2% | viability, T/C [23]: 14.4% | viability, T/C [24]: 15.5% | viability, T/C [25]: 17.5% | viability, T/C [26]: 19.6% | viability, T/C (second compound 0.0949 µM, first compound 3.16 µM): 19.8% | viability, T/C (second compound 0.0949 µM, first compound 10 µM): 21.8% | viability, T/C [27]: 13% | viability, T/C [28]: 14.8% | viability, T/C [29]: 14.2% | viability, T/C [30]: 17.2% | viability, T/C (second compound 0.3 µM, first compound 3.16 µM): 19.5% | viability, T/C (second compound 0.3 µM, first compound 10 µM): 19.1%

Nc1ccn(C2OC(CO)C(O)C2(F)F)c(=O)n1 (stereo not drawn) + CCn1c(-c2cccnc2C(C)OC)c2c3cc(ccc31)N1CCOC(CC(NC(=O)C(C(C)C)N(C)C(=O)C3(F)CCN(C(=O)C#CC(C)(C)N(C)C)CC3)C(=O)N3CCCC(N3)C(=O)OCC(C)(C)C2)C1
IC50 [1]: < 3.16 nM | IC50 [2]: < 3.16 nM | IC50 [3]: < 3.16 nM | IC50 [4]: < 3.16 nM | IC50 [5]: < 3.16 nM | IC50 [6]: < 3.16 nM | viability, T/C (second compound 0.000949 µM, first compound 0.00316 µM): 15.8% | viability, T/C (second compound 0.000949 µM, first compound 0.01 µM): 15.7% | viability, T/C [7]: 14.1% | viability, T/C [8]: 14.4% | viability, T/C [9]: 15.3% | viability, T/C [10]: 13.8% | viability, T/C (second compound 0.003 µM, first compound 0.00316 µM): 15.6% | viability, T/C (second compound 0.003 µM, first compound 0.01 µM): 15.7% | viability, T/C [11]: 13.5% | viability, T/C [12]: 14.8% | viability, T/C [13]: 15.6% | viability, T/C [14]: 11.7% | viability, T/C (second compound 0.00949 µM, first compound 0.00316 µM): 12.5% | viability, T/C (second compound 0.00949 µM, first compound 0.01 µM): 14.3% | viability, T/C [15]: 13.6% | viability, T/C [16]: 13.2% | viability, T/C [17]: 14.1% | viability, T/C [18]: 14.1% | viability, T/C (second compound 0.03 µM, first compound 0.00316 µM): 12.3% | viability, T/C (second compound 0.03 µM, first compound 0.01 µM): 13.7% | viability, T/C [19]: 13.8% | viability, T/C [20]: 15% | viability, T/C [21]: 14% | viability, T/C [22]: 13% | viability, T/C (second compound 0.0949 µM, first compound 0.00316 µM): 11.1% | viability, T/C (second compound 0.0949 µM, first compound 0.01 µM): 10.2% | viability, T/C [23]: 11.4% | viability, T/C [24]: 10.1% | viability, T/C [25]: 12.1% | viability, T/C [26]: 11.6% | viability, T/C (second compound 0.3 µM, first compound 0.00316 µM): 10.6% | viability, T/C (second compound 0.3 µM, first compound 0.01 µM): 11.3% | viability, T/C [27]: 9.37% | viability, T/C [28]: 9.44% | viability, T/C [29]: 9.59% | viability, T/C [30]: 10%
